Experiments:
Hepatitis C virus = experiment: Antiviral activity against Hepatitis C virus infected Huh7 cells assessed as RNA replicon; format: functional, Hepacivirus hominis, Huh-7
[1] = Cytotoxicity against Huh7 cells relative to control; format: cell-based; conditions: human, huh-7

Compound | Inhibition (Hepatitis C virus) [%] | Activity [1] [%]
COc1cccc(-c2nc3c(=O)nc(N)[nH]c(=O)c3n2[C@@H]2O[C@H](CO)[C@@H](O)[C@H]2O)c1 | 31.8 | 97.2
Nc1nc(=O)c2nc(-c3ccc(F)cc3)n([C@@H]3O[C@H](CO)[C@@H](O)[C@H]3O)c2c(=O)[nH]1 | 0 | 108.6
COc1ccc(-c2nc3c(=O)nc(N)[nH]c(=O)c3n2[C@@H]2O[C@H](CO)[C@@H](O)[C@H]2O)cc1 | 9.5 | 109.8

Reference: ChEMBL document CHEMBL1143699, “Chemical and biological effects of substitution of the 2-position of ring-expanded ('fat') nucleosides containing the imidazo[4,5-e][1,3]diazepine-4,8-dione ring system: the role of electronic and steric factors on glycosidic bond stability and anti-HCV activity” (Bioorg Med Chem, 2007)
